pIC50: −log10 of the molar value.
Experiments:
MAP4K4 = MAP4K4 (Homo sapiens, UniProt O95819); assay: cell-free biochemical assay, MAP4K4 inhibition
Source text: DMX-10001, a rapidly hydrolyzed phosphate pro-drug of DMX-5804, was produced by Domainex Ltd, by a modification of the latter’s synthetic route, attaching a hydrolysable phosphate group via a linker to the core of DMX-5804 (Fig. 1a). This removes a key hydrogen bonding group and prevents DMX-10001 from binding to the hinge region of the MAP4K4 kinase domain. […] Furthermore, this modest value is likely driven by minute levels of DMX-5804 either present in the sample or generated during by hydrolysis during the assay.

porcine model of MI [1] = assay: efficacy study, LAD occlusion 60 min / reperfusion 24 h: infarct size, no-reflow, area at risk; assay type: in vivo, swine
Protocol: Next, an efficacy study was performed, in adherence to published guidelines for rigor and reproducibility, to evaluate the postulated benefit of DMX-10001 in a large-mammal model of MI. Briefly, 36 closed-chest swine (41 ± 2 kg) were subjected to regional ischemia by occluding the left anterior descending coronary artery (LAD) distal to the first diagonal branch for 60 min, followed by 24 h of reperfusion. Treatment with DMX-10001 (60 mg/kg/h for 0.5 h, followed by 17 mg/kg/h for 23.5 h) versus the vehicle was initiated 20 min prior to reperfusion and continued for 1 day. After 2 h of reperfusion, animals were allowed to recover from anesthesia. At 24 h of reperfusion, the infarct area (IA), area of no-reflow (NR), and area at ischemic risk (AAR) were determined. Transthoracic short-axis B-mode echocardiograms and measurements of LV pressure and its first derivative (LVdP/dt) were obtained at baseline and at 24 h of reperfusion. LV pressure–volume measurements were obtained at 24 h of reperfusion. Heart-type fatty acid binding protein (hFABP) release was measured, as a biomarker that correlates with IS and NR in swine at least as well as cardiac troponin I [30].
The LAD was catheterized with a standard clinical guiding catheter (JL3.5, 6F, Medtronic, Minneapolis, MN), and quantitative coronary angiography (CAAS, PIE Medical, Maastricht, The Netherlands) was performed following 2 mg isosorbidedinitrate (Cedocard, Nycomed, Hoofddorp, The Netherlands) and using iodixanol as contrast agent (Visipaque™, GE Healthcare BV, Eindhoven, The Netherlands). Then, an over-the-wire coronary angioplasty balloon (Sprinter OTW, 2–3 mm × 6 mm, Medtronic, Minneapolis, MN) on a standard guide wire (0.014″, 180 cm, ASAHI SION blue, ASAHI Intecc co Ltd, Aichi, Japan) was carefully positioned under fluoroscopic guidance distal to the first diagonal branch. Following balloon inflation, total coronary occlusion was confirmed by angiography (at baseline and at 58 min of occlusion) and by ECG changes. Animals that developed VF during the protocol were defibrillated within 25 ± 10 s. After 1 h of occlusion, the coronary balloon was deflated to establish reperfusion, which was angiographically confirmed to ensure an adequate coronary blood flow to the entire LAD perfusion territory. Heart rate, aortic blood pressure, and ECG were monitored until 2 h of reperfusion.
Twenty min before the onset of reperfusion, an initial rapid administration was started (30 min infusion, 60 mg/kg/h, Alaris CC, Cardinal Health, Role, Switzerland), followed after 10 min of reperfusion by a lower sustained dose (23.5 h infusion, 17 mg/kg/h, Myfuser, CANOX medical Device Srl, Capurso, Italy). The dosing regimen was determined by iterative computer modeling (XenoGesis Ltd, Alderley Park, UK) (Fig. 1b), based on prior dose-finding studies in pigs (data not shown).
After completing the post-infarct LV functional measurements on day two, the LAD was again catheterized, as before. The over-the-wire coronary angioplasty balloon and guide wire were positioned under fluoroscopic guidance at the same position, using anatomic landmarks (distance from sidebranches) visualized by coronary angiography. Through the lumen of the balloon, 5 ml of 4% (w/v) thioflavin-S solution (Sigma, Zwijndrecht, The Netherlands) were injected, allowing the area of no-reflow within the AAR to be measured later histologically. The balloon was re-inflated to re-occlude the LAD and a sternotomy was performed. Next, a bolus of 40 ml of a 15% (w/v) Evans Blue solution was injected into the left atrium for negative staining of the AAR. To facilitate excision, the heart was arrested via induction of VF by gently touching the LV epicardium with a 9 V battery. The LV was isolated and sectioned into 5 transverse slices. The AAR and area of no-reflow (NR), visualized using UV light, were quantified in all sections. […]

porcine model of MI [2] = assay: efficacy study: convertible ventricular fibrillation and defibrillation; set-up: species or system swine; conditions: in vivo
Protocol: Investigators involved in the experimental protocol and analysis of the data were blinded to the treatment status of each pig. Animals were randomly assigned to the treatment groups in two blocks, using a random number series generated online. To control further for potential investigator bias, inclusion and exclusion criteria were formulated prior to the onset of the study. Only healthy pigs weighing 38–48 kg, with a body temperature between 37.0 and 40.0 °C at the start of surgical preparation, were included. Exclusion criteria were: (i) Encountering ventricular fibrillation (VF) during the experimental protocol that could not be converted to sinus rhythm within 2 min. (ii) Encountering VF > 4 times before starting the drug or vehicle infusion. (iii) Developing progressive pump failure (mean arterial pressure (MAP) < 30 mmHg) during first 30 min of reperfusion. […]
The LAD was catheterized with a standard clinical guiding catheter (JL3.5, 6F, Medtronic, Minneapolis, MN), and quantitative coronary angiography (CAAS, PIE Medical, Maastricht, The Netherlands) was performed following 2 mg isosorbidedinitrate (Cedocard, Nycomed, Hoofddorp, The Netherlands) and using iodixanol as contrast agent (Visipaque™, GE Healthcare BV, Eindhoven, The Netherlands). […] Heart rate, aortic blood pressure, and ECG were monitored until 2 h of reperfusion.

aqueous solubility = assay type: physicochemical
Protocol: The chemical structures of DMX-5804 and DMX-10001 are compared in Fig. 1a, highlighting the phosphate moiety of the pro-drug. The aqueous solubility of DMX-10001 was > 400-fold greater than that of DMX-5804, allowing it to be infused i.v. without prohibitive fluid volumes. Cleavage to DMX-5804 was detectable in rats within 5 min and largely complete within 60 min (Fig. 1b). Data from i.v. infusion at a range of dose levels in the pig were simultaneously fit to a three-compartment pharmacokinetic model. Plasma protein binding in pig was used to determine free drug levels (not shown). Various dosing regimens were simulated to avoid an initial spike in DMX-5804 whilst rapidly achieving the efficacious drug levels seen in mice after oral gavage (Fig. 1c).

Chain of MAP4K4 (O95819 whole entry, species assumed, the tested form may be a part): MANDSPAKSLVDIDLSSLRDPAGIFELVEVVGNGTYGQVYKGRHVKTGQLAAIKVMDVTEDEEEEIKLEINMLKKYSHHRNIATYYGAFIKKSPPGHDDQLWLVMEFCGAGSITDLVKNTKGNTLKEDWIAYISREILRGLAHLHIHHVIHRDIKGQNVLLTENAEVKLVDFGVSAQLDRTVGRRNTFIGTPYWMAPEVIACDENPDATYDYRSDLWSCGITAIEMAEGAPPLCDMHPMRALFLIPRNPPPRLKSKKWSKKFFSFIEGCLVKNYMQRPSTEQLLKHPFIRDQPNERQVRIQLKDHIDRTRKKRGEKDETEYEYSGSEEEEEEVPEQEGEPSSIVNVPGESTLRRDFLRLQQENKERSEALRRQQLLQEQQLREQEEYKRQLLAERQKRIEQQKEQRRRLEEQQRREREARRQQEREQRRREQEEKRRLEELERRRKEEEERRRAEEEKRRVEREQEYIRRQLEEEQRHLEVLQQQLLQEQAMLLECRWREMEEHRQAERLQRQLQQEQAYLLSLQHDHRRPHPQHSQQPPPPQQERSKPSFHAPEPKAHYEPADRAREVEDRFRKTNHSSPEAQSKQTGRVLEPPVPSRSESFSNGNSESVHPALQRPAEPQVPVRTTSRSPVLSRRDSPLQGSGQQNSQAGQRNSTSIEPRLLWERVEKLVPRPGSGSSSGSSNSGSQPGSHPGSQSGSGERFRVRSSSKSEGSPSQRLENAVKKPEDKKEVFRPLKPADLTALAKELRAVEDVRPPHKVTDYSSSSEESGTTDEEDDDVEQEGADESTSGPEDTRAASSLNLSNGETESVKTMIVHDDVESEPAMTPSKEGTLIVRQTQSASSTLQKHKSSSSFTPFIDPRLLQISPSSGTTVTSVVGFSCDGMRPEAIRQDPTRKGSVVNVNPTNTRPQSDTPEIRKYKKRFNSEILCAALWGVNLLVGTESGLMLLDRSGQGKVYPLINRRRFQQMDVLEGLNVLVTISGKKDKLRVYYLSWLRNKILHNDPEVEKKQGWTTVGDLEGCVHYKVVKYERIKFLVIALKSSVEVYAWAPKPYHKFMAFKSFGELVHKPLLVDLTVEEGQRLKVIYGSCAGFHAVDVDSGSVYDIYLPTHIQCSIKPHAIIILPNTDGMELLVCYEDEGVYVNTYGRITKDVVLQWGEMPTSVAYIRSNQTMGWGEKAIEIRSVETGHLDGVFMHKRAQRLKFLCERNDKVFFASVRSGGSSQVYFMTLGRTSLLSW

difference in IC50 against MAP4K4, DMX-10001 vs DMX-5804 (MAP4K4): > 750 fold
pIC50 (MAP4K4; cell-free biochemical assays, read-out: IC50 against MAP4K4): 5.64
VF during drug infusion (porcine model of MI [2]): did not occur
aqueous solubility relative to that of DMX-5804 (aqueous solubility): > 400 fold
SMILES: COCCOc1ccc(-c2cn(-c3ccccc3)c3ncn(COP(=O)(O)O)c(=O)c23)cc1 [DMX-10001]
IS/AAR (porcine model of MI [1]; excluding one statistical outlier, n = 11): 82.1 ± 8.6%
difference in IS/AAR vs the vehicle control (porcine model of MI [1]; excluding one statistical outlier, P = 0.0562): 7%
effect on NR, NR/AAR or NR/IS (porcine model of MI [1]; full cohort): no significant effect
IS/AAR (porcine model of MI [1]; full cohort, n = 12): 76.3 ± 21.6%
extent of infarction (IS) (porcine model of MI [1]; full cohort, n = 12): 18.2 ± 5.8 g
extent of infarction (IS) as % of LV mass (porcine model of MI [1]; full cohort, n = 12): 17.2 ± 5.7%
reduction of the extent of infarction in grams or % of LV mass vs vehicle (porcine model of MI [1]; full cohort, n = 12 per group): 27%
reduction in mean IS/AAR vs vehicle (porcine model of MI [1]; full cohort, not significant (P = 0.0817)): 13%
IS or no-reflow corrected for the area at ischemic risk (porcine model of MI [1]; in vivo): No significant reduction
ANCOVA: slopes of IS and NR as a function of AAR, NR as a function of IS (porcine model of MI [1]; n = 11): No significant differences

Reference: article PMC8137473, “Preclinical trial of a MAP4K4 inhibitor to reduce infarct size in the pig: does cardioprotection in human stem cell-derived myocytes predict success in large mammals?” (Basic Research in Cardiology, 2021)
